Assay results taken from patent US7625927B2, “Method of treating glaucoma” (Alcon Research, Ltd., priority 2006, dated 2009).

System: cultured adult rat retinal ganglion cells (RGCs)
Assay: Glutamate-induced toxicity in cultured adult rat retinal ganglion cells (RGC survival, Thy-1-positive cell count)
Assay type: cell-based
Settings: Compound at 1 μM, 30 min pre-treatment, then 100 μM glutamate for 3 days; Thy-1-positive healthy cells counted; 70% of RGCs survived with glutamate alone
Procedure: Adult Sprague-Dawley rats were euthanized by CO2 asphyxiation. Their eyes were enucleated and the retinas isolated. Retinal cells were treated with of papain solution for 25 min at 37° C., then washed 3 times with 5 mL RGC culture medium (Neurobasal medium with various nutrient supplements+1% fetal calf serum). Retinal cells were dispersed by trituration. Cell suspension was placed onto poly-D-lysine- and laminin-coated 8-well chambered culture slides. The cells were then cultured in 95% air/5% CO2 at 37° C.
For glutamate-induced toxicity studies, cells were pre-treated with vehicle or the indicated compounds for 30 minutes, followed by 100 μM glutamate for 3 days. At the end of the incubation period, the cells were fixed and labeled for Thy-1, a RGC marker, by immunocytochemistry. Cell survival was quantified by manually counting Thy-1-positive healthy cells in each well.

COC(=O)CNC(=O)c1ncccc1O [Compound 1]
protection against glutamate-induced cytotoxicity (RGC survival): protective against this insult
